In publication PMC4575030 (PLoS ONE, 2015):
Values joined by “and” are separate entries in the source; they are usually repeats but may differ in a detail not shown here. Equal entries are not always repeated. Where two headings read alike, the source gives them in different places.

Assays:
hNav1.7 = target: T1, hNav1.7 (Homo sapiens, UniProt Q15858); experiment: Manual whole cell patch clamp electrophysiology on HEK 293 cells stably expressing hNav1.7; type: cell-based
T1 construct: expressed in transfected cells; host or cells: HEK 293
T1 sequence (Q15858 whole entry): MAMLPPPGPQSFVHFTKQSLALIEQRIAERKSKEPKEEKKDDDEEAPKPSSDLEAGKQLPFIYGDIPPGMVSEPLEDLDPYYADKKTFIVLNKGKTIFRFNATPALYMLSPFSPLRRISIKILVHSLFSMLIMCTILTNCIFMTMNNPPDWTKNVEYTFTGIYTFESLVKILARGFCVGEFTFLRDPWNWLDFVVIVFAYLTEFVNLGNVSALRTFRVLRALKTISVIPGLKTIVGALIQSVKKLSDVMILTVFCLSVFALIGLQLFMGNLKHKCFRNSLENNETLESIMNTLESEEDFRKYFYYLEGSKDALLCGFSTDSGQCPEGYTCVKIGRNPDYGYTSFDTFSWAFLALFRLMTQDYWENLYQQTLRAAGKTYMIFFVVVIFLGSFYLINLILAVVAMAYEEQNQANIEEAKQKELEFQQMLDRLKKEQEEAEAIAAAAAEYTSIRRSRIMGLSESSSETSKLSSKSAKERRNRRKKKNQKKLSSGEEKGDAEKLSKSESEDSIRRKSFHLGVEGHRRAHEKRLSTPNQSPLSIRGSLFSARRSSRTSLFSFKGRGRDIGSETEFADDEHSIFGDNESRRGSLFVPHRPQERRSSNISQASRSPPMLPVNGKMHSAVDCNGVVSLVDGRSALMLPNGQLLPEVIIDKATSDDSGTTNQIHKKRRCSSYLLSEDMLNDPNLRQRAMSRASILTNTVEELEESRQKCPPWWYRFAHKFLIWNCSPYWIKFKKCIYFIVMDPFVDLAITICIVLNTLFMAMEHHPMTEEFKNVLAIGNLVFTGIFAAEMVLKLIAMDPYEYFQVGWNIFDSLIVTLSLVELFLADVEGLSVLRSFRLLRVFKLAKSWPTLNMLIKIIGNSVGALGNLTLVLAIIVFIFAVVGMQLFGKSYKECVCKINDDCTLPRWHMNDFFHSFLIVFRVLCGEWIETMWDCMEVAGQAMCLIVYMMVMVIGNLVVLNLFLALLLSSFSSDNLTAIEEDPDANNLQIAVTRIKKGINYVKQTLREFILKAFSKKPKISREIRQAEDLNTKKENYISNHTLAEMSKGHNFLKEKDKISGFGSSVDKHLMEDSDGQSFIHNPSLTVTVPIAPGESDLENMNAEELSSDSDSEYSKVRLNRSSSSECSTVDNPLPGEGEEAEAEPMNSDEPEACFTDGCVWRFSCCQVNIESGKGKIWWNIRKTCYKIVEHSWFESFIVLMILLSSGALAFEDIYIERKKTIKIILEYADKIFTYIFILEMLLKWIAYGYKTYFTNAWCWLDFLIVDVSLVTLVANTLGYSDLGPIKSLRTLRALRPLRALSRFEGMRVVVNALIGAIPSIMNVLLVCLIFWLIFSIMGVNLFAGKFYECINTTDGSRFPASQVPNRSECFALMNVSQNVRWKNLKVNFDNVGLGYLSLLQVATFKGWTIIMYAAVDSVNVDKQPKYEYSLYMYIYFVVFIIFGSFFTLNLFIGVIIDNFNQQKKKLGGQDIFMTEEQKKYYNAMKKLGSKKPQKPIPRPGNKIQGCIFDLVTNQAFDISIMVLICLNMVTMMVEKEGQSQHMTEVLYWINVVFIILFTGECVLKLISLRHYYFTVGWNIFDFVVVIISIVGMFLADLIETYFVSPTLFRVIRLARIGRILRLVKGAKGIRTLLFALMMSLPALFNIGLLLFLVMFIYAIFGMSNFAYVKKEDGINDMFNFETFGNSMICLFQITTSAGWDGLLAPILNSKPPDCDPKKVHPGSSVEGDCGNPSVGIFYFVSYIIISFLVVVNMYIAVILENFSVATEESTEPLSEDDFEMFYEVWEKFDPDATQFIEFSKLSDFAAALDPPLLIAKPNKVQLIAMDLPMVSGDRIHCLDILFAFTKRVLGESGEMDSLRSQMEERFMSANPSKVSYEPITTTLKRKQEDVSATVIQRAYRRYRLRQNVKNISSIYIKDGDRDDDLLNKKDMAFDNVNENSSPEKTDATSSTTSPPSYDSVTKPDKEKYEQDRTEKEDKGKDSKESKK
Description: Except as indicated, recordings to determine potency of aminotriazines on Nav1.7 were made with manual electrophysiology. HEK 293 cells stably expressing hNav1.7 were voltage-clamped using the whole cell patch clamp configuration. Cells were plated onto 35 mm culture dishes 0–24 hours before recording, and tissue culture medium was exchanged for external solution containing (in mM) 140 NaCl, 5 KCl, 2 CaCl2, 1 MgCl2, 10 HEPES, 11 glucose, pH 7.4 with NaOH. Patch pipettes were pulled from borosilicate glass capillaries (1.2 mm outer diameter, World Precision Instruments, Sarasota, FL) with a P-97 pipette puller (Sutter Instruments, Novato, CA) and backfilled with internal solution containing (in mM) 62.5 CsCl, 75 CsF, 2.5 MgCl2, 5 EGTA, 10 HEPES, pH 7.25 with CsOH. Pipette resistances were between 1.5 and 2.0 MΩ. After formation of the whole-cell configuration, cells were lifted off the dish bottom with the patch pipette and positioned directly in front of a microarray of glass tubes (each tube internal diameter ~ 1 mm) with each tube containing continuously flowing control or test solution. A full current-voltage relation was recorded from each cell, and cells with poor space clamp as indicated by discontinuous I-V relation or by prolonged or nonexponential current kinetics were discarded. Solution switching was accomplished by moving the microarray with computer control via an RSC-160 rapid solution exchanger (Bio-Logic, Claix, France). Currents were recorded with an Axopatch 200B patch-clamp amplifier driven by pCLAMP software, filtered (4-pole Bessel) at 5 kHz during acquisition, and digitized at 20 kHz using pClamp9.2. Whole cell capacitance and series resistance were compensated at 0%- 80%, and reported voltages were uncorrected for liquid junction potentials. Recordings were made at room temperature. Concentration-response curves were taken by measuring inward Nav1.7 current every five to six seconds with a 10 ms to 20 ms depolarization to near the peak of the current-voltage relation, before and after steady-state inhibition by a given concentration of aminotriazine. For concentration response curves on partially inactivated channels, holding voltage was set to produce 20% fractional inactivation. […] Occasionally two compound concentrations were tested in parallel without resetting the voltage, if inhibition was rapid and the current level steady. […] Concentration response curves on non-inactivated channels generally were taken with multiple concentrations added in series without washoff of the previous concentration.

rat Nav1.7 = rat Nav1.7 (Rattus norvegicus, UniProt O08562); experiment: PatchXpress automated electrophysiology on rat Nav1.7; type: cell-based; details: 20%-inactivated rat Nav1.7
rat Nav1.7, sequence (O08562 whole entry): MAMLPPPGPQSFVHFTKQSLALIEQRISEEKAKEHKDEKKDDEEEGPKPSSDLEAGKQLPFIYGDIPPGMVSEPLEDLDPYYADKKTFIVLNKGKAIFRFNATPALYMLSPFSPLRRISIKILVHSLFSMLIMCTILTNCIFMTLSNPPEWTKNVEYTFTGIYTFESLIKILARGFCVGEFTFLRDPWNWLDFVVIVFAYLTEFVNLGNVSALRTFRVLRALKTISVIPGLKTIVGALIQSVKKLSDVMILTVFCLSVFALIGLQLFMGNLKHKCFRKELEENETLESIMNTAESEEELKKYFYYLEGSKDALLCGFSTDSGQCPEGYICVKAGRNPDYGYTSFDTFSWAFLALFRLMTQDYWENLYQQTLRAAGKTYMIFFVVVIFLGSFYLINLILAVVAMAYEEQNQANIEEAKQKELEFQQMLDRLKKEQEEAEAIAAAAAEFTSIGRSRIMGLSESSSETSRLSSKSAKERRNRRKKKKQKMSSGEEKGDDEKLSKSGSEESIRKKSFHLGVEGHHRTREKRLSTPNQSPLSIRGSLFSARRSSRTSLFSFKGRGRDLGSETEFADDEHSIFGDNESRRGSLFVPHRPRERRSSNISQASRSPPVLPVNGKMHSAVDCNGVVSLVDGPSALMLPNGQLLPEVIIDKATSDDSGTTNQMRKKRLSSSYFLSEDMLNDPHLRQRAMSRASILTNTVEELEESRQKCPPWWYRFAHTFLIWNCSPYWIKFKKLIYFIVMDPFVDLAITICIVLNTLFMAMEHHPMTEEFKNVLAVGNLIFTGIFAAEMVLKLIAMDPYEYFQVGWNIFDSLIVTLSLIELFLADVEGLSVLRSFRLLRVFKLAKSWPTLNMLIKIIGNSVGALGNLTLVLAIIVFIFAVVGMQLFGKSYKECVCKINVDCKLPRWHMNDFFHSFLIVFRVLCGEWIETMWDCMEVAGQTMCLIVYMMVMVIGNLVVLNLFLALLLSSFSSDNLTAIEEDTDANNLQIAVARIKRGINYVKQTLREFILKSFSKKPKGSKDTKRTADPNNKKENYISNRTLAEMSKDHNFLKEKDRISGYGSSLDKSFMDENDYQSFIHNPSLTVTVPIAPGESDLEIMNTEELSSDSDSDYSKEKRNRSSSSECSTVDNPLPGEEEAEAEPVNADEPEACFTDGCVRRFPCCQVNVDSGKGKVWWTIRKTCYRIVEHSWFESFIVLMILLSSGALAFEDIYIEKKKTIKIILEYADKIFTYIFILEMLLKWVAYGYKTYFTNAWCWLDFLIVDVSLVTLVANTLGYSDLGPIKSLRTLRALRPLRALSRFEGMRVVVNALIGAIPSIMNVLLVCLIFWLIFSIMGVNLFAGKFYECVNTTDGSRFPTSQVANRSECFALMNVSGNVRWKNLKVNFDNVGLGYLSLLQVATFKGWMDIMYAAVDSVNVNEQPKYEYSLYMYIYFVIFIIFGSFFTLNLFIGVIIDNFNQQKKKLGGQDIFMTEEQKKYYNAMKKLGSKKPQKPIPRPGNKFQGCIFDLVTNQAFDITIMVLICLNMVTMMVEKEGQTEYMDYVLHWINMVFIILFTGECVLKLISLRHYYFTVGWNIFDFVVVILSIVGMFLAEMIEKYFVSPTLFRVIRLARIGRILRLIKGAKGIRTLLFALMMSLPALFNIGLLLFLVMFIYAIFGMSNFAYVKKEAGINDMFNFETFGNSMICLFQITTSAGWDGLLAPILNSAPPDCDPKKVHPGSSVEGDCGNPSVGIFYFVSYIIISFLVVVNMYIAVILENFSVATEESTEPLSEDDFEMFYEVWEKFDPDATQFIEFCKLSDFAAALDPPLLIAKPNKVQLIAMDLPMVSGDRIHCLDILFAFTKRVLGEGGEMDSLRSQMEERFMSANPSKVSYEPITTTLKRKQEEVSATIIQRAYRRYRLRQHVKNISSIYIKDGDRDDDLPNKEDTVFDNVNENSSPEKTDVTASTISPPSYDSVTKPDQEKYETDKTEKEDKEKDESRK

[1] = In vitro plasma protein binding; type: in vitro ADME
[2] = Terminal plasma and brain concentrations after behavioral testing; type: in vivo, rat; details: for Kp: brain and plasma, ratio of concentrations measured following the formalin test; for concentration at 160 min / Terminal plasma concentration: mean; for concentration at 160 min: n = 4; for Terminal plasma concentration: n = 8; for Effective [plasma]: mean terminal plasma concentration at the lowest effective dose in the rat formalin test
[3] = test system: rat formalin model of pain; experiment: Formalin test (formalin-induced flinching); type: in vivo; details: for Decrease in formalin flinching: phase 2 (10 to 40 min), percent of vehicle; for Analgesic efficacy: rat formalin model, significant (p < 0.05) decrease in flinching at a dose without a reduction in open field movement that obviated the result; for Reduction in formalin flinching, result in words: rat formalin test
Description: Formalin-induced flinching was measured using the Automated Nociception Analyzer (ANA) (University Anesthesia Research & Development Group, La Jolla, CA). Rats were habituated to the ANA testing chambers for at least 30 minutes prior to the formalin injection. At test time, each rat was removed from the testing chamber and gently wrapped in a towel. 50 μL of 2.5% formalin solution was injected into the dorsal surface of the left hind paw with a 30 gauge needle. A small metal band was then affixed to the plantar side of the injected paw with one drop of super glue. The animal was then unwrapped from the towel, placed back in the testing chamber, and flinching behavior was scored for 40 minutes by the ANA software. While minimized, non-painful paw movement from the natural activity of an alert animal could be erroneously binned by the automated recording system as a nociceptive behavior. These behaviors are not subtracted from the flinching total. […] Total flinching behavior was used as the endpoint of the assay.

naïve rats = experiment: Open field activity (basic movement); type: in vivo, rat; details: formalin-naïve rats
Description: Basic movement was measured using the Photobeam Activity System Open Field (San Diego Instruments, San Diego, CA) equipped with 48 infrared photocell emitters and detectors. Photobeams used to measure vertical movement were positioned 14 cm above the test chamber floor. Each testing chamber was made of Plexiglas (41 x 41 x 36 cm) and was devoid of any bedding. At the beginning of the test session, each animal was placed in a separate testing chamber and the room lights were turned off. Basic movement was measured for 30 minutes.

[4] = IC50 (μM) 20%-inactivated, 20%-inactivated human Nav1.7, holding voltage set to produce 20% fractional inactivation
[5] = non-inactivated human Nav1.7, holding voltage -140 mV or occasionally -120 mV, peak concentration tested 10 μM, read-out: IC50 (μM) Non-inactivated
[6] = 30 mg/kg p.o., listed as compound A
[7] = 60 mg/kg p.o., listed as compound A
[8] = 10 mg/kg p.o., negative value = increase

Structure (SMILES) | IC50 (hNav1.7; [4]) [µM] | IC50 (hNav1.7; [5]) [µM] | IC50 (rat Nav1.7) [nM] | fraction unbound [1] | Kp ([2]; rat) | Effective [plasma] [2] [µM] | Decrease in formalin flinching ([3]; 10 mg/kg p.o.) | Decrease in formalin flinching ([3]; 30 mg/kg p.o.) | Decrease in formalin flinching ([3]; 60 mg/kg p.o.) [%] | Analgesic efficacy [3] | Decrease in basic movement (naïve rats; [8]) [%] | Decrease in basic movement (naïve rats; 30 mg/kg p.o.) | Decrease in basic movement (naïve rats; 60 mg/kg p.o.) [%] | Reduction in formalin flinching, result in words [3] | further results
CC(=O)Nc1cccc(Nc2ncnc(N3CCC(Oc4ccc(Cl)cc4)CC3)n2)c1C [Compound A, N-(3-((4-(4-(4-chlorophenoxy)-1-piperidinyl)-1,3,5-triazin-2-yl)amino)-2-methylphenyl)acetamide] | 0.19 | > 10 | 520 | 0.013 | 0.1 | 3.02 | 31.4% and 32% | 66.1% and 66% | 85 | Yes | -4.2 | 13.5% and 14% | 46 | – | concentration at 160 min ([2]; formalin test, 10 mg/kg p.o.): 280 nM; Terminal plasma concentration ([2]; formalin test, 10 mg/kg p.o.): 3.02 µM; concentration at 160 min ([2]; formalin test, 30 mg/kg p.o.): 880 nM; Terminal plasma concentration ([2]; formalin test, 30 mg/kg p.o.): 8.07 µM; Terminal plasma concentration ([2]; formalin test, 60 mg/kg p.o.): 13.5 µM; Terminal plasma concentration ([2]; open field test, 10 mg/kg p.o.): 2.75 µM; Terminal plasma concentration ([2]; open field test, 30 mg/kg p.o.): 5.53 µM; Terminal plasma concentration ([2]; open field test, 60 mg/kg p.o.): 13.0 µM; concentration at 160 min ([2]; rat, brain, po, formalin test, 60 mg/kg p.o.): 1540 nM; Decrease in formalin flinching ([3]; 10 mg/kg p.o., listed as compound A): 32%; Decrease in formalin flinching [3, 6]: 66%; Decrease in formalin flinching [3, 7]: 85% and 84.6%; Decrease in basic movement (naïve rats; [6]): 14%; Decrease in basic movement (naïve rats; [7]): 46%
CC(=O)Nc1cccc(Nc2ncnc(N3CCC(Oc4ccc(Cl)c(C)c4)CC3)n2)c1C [Compound B, N-(3-((4-(4-(4-chloro-3-methylphenoxy)-1-piperidinyl)-1,3,5-triazin-2-yl)amino)-2-methylphenyl)acetamide] | 0.5 | > 10 | 3500 | 0.006 | – | 8.75 | 17% | 30% | 39 | Yes | – | 5.6% | 19 | statistically significant and plasma concentration-dependent reduction in formalin flinching | –
CC(=O)Nc1cccc(Nc2ncnc(N3CC(Oc4ccc(F)cc4)C3)n2)c1C [Compound C, N-(3-((4-(3-(4-fluorophenoxy)-1-azetidinyl)-1,3,5-triazin-2-yl)amino)-2-methylphenyl)acetamide] | 1.3 | > 10 | 4900 | 0.164 | 0.03 | 3.68 | 35% | 53% | – | Yes | 8.5 | 23% | – | statistically significant and plasma concentration-dependent reduction in formalin flinching | Decrease in formalin flinching ([3]; 3 mg/kg p.o.): 14%; Decrease in basic movement (naïve rats; 3 mg/kg p.o.): 6.8%
CC(=O)Nc1cccc(Nc2ncnc(N3CCC(OCc4ccc(F)c(F)c4)CC3)n2)c1C [Compound D, N-(3-((4-(4-((3,4-difluorobenzyl)oxy)-1-piperidinyl)-1,3,5-triazin-2-yl)amino)-2-methylphenyl)acetamide] | 0.6 | > 10 | 1700 | 0.067 | 0.19 | 1.27 | 36% | 62% | 83 | Yes | – | 28% | 50 | statistically significant and plasma concentration-dependent reduction in formalin flinching | Increase in basic movement (in parentheses in the column Decrease in basic movement) (naïve rats; 10 mg/kg p.o., value in parentheses corresponds to a measured increase): (1.4%)
CC(=O)Nc1cc(Nc2ncnc(N3CC=C(c4ccc(C#N)cc4)CC3)n2)ccc1F [Compound E, N-(5-((4-(4-(4-cyanophenyl)-3,6-dihydro-1(2H)-pyridinyl)-1,3,5-triazin-2-yl)amino)-2-fluorophenyl)acetamide] | 0.09 | 2.1 | 3500 | 0.009 | 0.49 | 6.14 | 18% | 62% | – | Yes | 2 | 29% | – | statistically significant and plasma concentration-dependent reduction in formalin flinching | Decrease in formalin flinching ([3]; 100 mg/kg p.o.): 83%; Decrease in basic movement (naïve rats; 100 mg/kg p.o.): 29%
CC(=O)Nc1cccc(Nc2ncnc(N3CCC(Oc4ccc(Cl)c(F)c4)CC3)n2)c1C [Compound G, N-(3-((4-(4-(4-chloro-3-fluorophenoxy)-1-piperidinyl)-1,3,5-triazin-2-yl)amino)-2-methylphenyl)acetamide] | 0.3 | 6.6 | 800 | 0.006 | 0.09 | – | – | – | – | No | – | – | – | did not achieve statistically significant reversals in formalin flinching | –
CC(=O)Nc1cccc(Nc2ncnc(N3CCC(OCc4ccccc4)CC3)n2)c1 [Compound H, N-(3-((4-(4-(benzyloxy)-1-piperidinyl)-1,3,5-triazin-2-yl)amino)phenyl)acetamide] | – | – | – | – | – | – | – | – | – | No | – | – | – | did not achieve statistically significant reversals in formalin flinching | –
CN1C(=O)CN=C(c2ccccc2)c2cc(Cl)ccc21 [Diazepam, diazepam, reference compound] | – | – | – | – | – | – | – | – | – | – | – | – | – | – | Reduction in formalin-induced flinching ([3]; diazepam 10 mg/kg, lowest dose with statistically significant reduction): 22%
